In paper PMC4896643 (Science signaling, 2016):
Entries after “also recorded” stand apart in the source; their conditions may differ.

Tests used:
ERα-SRC3 interaction = test: tr-FRET assay of SRC3 binding to ERα; assay type: biochemical
ERα-knockout mice = test: effects in ERα-knockout; settings: ERKO mice
MCF-7 cells [1] = test: RNA-Seq transcriptional profiling; settings: for number of genes regulated: 10 nM E2 or 1 μM PaPE-1, P<0.05, fold change >2
MCF-7 cells [2] = test: MCF-7 cell proliferation; settings: 6 days, WST assay
[3] = test system: ovariectomized female mice; test: reproductive tissue and thymus effects in ovariectomized mice
[4] = test system: ovariectomized C57BL/6 mice; test: gene regulation and signaling pathway activation in tissues in vivo
MCF-7 cells [5] = test: Western blot of signaling pathway activation in MCF-7 cells
MCF-7 cells [6] = test: ChIP-Seq of ERα, ERK2, pSer5 RNA Pol II
[7] = test system: primary bovine aortic endothelial cells (BAECs); test: eNOS activation; assay type: cell-based; settings: for eNOS / NOS activity: 15 min
[8] = test system: ovariectomized C57BL/6 mice; test: metabolic effects in ovariectomized mice
ovariectomized mice = test: carotid artery reendothelialization after perivascular electric injury

## CC/C(=C(\c1ccc(O)cc1)c1ccc(OCCN(C)C)cc1)c1ccccc1 [OH-Tam, trans-hydroxytamoxifen]
ERα-SRC3 interaction
  reversal of the ER-SRC3 interaction promoted by E2: reversed the ER-SRC3 interaction

## C[C@]12CC[C@@H]3c4ccc(O)cc4CC[C@H]3[C@@H]1CC[C@@H]2O [E2, estradiol]
ERα-knockout mice
  blood triglycerides: did not decrease blood triglycerides
  suppression of liver FASN and SREBP1c gene expression: lost in ERKO mice
  uterine growth: did not stimulate uterine growth
ERα-knockout mice; 3 weeks
  ability to diminish body weight gain after ovariectomy: lost
MCF-7 cells [1]; 1 μM AZD6244 pretreatment, 4 h
  regulated genes blocked by MAPK inhibitor AZD6244: ~ 23%
MCF-7 cells [1]; 1 μM PP242 pretreatment, 4 h
  regulated genes blocked by mTOR pathway inhibitor PP242: 40%
MCF-7 cells [1]; 4h
  number of genes regulated: ~1500 genes
MCF-7 cells [1]; 24h
  number of genes regulated: about 3000 genes
MCF-7 cells [2]
  proliferation of MCF-7 cells: potently stimulated proliferation
[3]
  mammary gland adiposity: reduced the mammary gland adiposity
  mammary gland ductal morphology: elicited marked ductal growth
  thymus size: induced marked involution of the thymus
  uterine weight: effective in increasing growth of the uterus
[4]; injected, 2h
  mTOR signaling (S6 phosphorylation) in liver and skeletal muscle: effective in inducing mTOR signaling
  signaling pathway stimulation in reproductive tissues (uterus and mammary gland): stimulated reproductive tissues
[4]; pellets, qPCR
  gene expression changes in uterus: induced gene expression changes in uterus
MCF-7 cells [5]
  phosphorylation of Ser118 in ERα: observed
MCF-7 cells [6]
  ERK2 recruitment: caused recruitment of ERK2 to enhancer regions together with ERα
  ERα recruitment to chromatin: recruited to chromatin
[7]
  eNOS / NOS activity: activated by E2
[7]; plus antiestrogen ICI 182,780
  eNOS / NOS stimulation with ICI: fully attenuated by ICI
ERα-SRC3 interaction; coactivator titration
  SRC3 binding to ERα-ligand complex: bound with high affinity
[8]; 3 weeks
  food consumption: early drop in food intake
  liver FASN and SREBP-1c gene expression: reduced
[8]; 3 weeks, pellets
  body weight gain after ovariectomy: suppressed; also recorded: reduced body weight gain
[8]; 3 weeks, perigonadal, perirenal, subcutaneous, mesenteric
  weight of fat depots: decreased the weight of all of the fat depots examined
[8]; end of 3 weeks
  fat mass (EchoMRI): greatly reduced fat mass; also recorded: reduced fat mass more markedly
  lean mass and water mass (EchoMRI): increased only by E2; also recorded: did increase lean mass and water mass
  triglyceride concentrations in blood: decreased triglyceride concentrations in blood
[8]; liver, 3 weeks
  hepatocyte lipid content (Oil Red O): decreased hepatocyte lipid content
Ovariectomized mice; plus antiestrogen ICI
  uterine stimulation with ICI: blocked uterine stimulation
Ovariectomized mice; plus antiestrogen ICI 182,780
  endothelial repair response with ICI 182,780: fully prevented
Ovariectomized mice; same animals as reendothelialization
  uterine weight: greatly elevated by E2

## CC(=O)NCCNC(=O)CCC(C)(c1ccc(O)cc1)c1ccc(O)cc1 [PaPE-4]
[7]
  eNOS / NOS activity: increased NOS activity
